Measured values from PubChem BioAssay AID196 (DTP/NCI, 2004).
Values joined by “and” are separate entries in the source; they are usually repeats but may differ in a detail not shown here. Equal values may be shown once. Inconclusive results and toxic doses are left out. The calls were made as follows: active = survival T/C of 150% or more; inactive = T/C below 125% in these data.

System: BDF1 mice, intracerebral B16 melanoma, median survival T/C
Test: NCI In Vivo Anticancer Drug Screen. Data for tumor model B16 Melanoma (intracerebral) in B6D2F1 (BDF1) mice
Details: endpoint: median survival time, higher = longer survival
Description: The antitumor activity of compounds was measured in mice bearing transplantable tumors. Survival or tumor size were measured and the results are expressed as the measurement made in the treated group (T) divided by the measurement made in the vehicle treated control group (C). The tumor model used in this assay is B16 Melanoma (intracerebral) in B6D2F1 (BDF1) mice

[1] = dose: 0.75 mg/kg/injection, schedule: Q01DX009 (ip), vehicle: saline
[2] = dose: 1.5 mg/kg/injection, schedule: Q01DX009 (ip), vehicle: saline

Measured: T/C

NC(Cc1ccc(N(CCCl)CCCl)cc1)C(=O)O (stereo unspecified)
inactive: dose: 2.0 mg/kg/injection, schedule: Q01DX009 (ip), vehicle: water 120 % of control

COc1cc(NS(C)(=O)=O)ccc1Nc1c2ccccc2nc2c(C)cccc12
inactive: dose: 5.0 mg/kg/injection, schedule: Q04DX003 (ip), vehicle: Klucel (hydroxypropylcellulose) (HPC) 88 % of control | dose: 5.0 mg/kg/injection, schedule: Q04DX003 (ip), vehicle: saline 108 % of control | dose: 10.0 mg/kg/injection, schedule: Q04DX003 (ip), vehicle: Klucel (hydroxypropylcellulose) (HPC) 91 % of control | dose: 10.0 mg/kg/injection, schedule: Q04DX003 (ip), vehicle: saline 100 % of control | dose: 20.0 mg/kg/injection, schedule: Q04DX003 (ip), vehicle: saline 116 % of control

CS(C)=O
inactive: dose: 1000.0 mg/kg/injection, schedule: Q01DX005 (ip), vehicle: saline 103 % of control | dose: 2000.0 mg/kg/injection, schedule: Q01DX005 (ip), vehicle: saline 97 % of control and 100 % of control and 108 % of control | dose: 4000.0 mg/kg/injection, schedule: Q01DX005 (ip), vehicle: saline 101 % of control and 109 % of control and 114 % of control

CN(C)CC(=O)c1ccc(O)c(O)c1
inactive: dose: 100.0 mg/kg/injection, schedule: Q01DX005 (ip), vehicle: saline 96 % of control | dose: 200.0 mg/kg/injection, schedule: Q01DX005 (ip), vehicle: saline 124 % of control and 97 % of control | dose: 400.0 mg/kg/injection, schedule: Q01DX005 (ip), vehicle: saline 119 % of control | dose: 800.0 mg/kg/injection, schedule: Q01DX005 (ip), vehicle: saline 90 % of control and 108 % of control

CC(=O)OC1COC(NC(=O)N(CCCl)N=O)C(OC(C)=O)C1OC(C)=O (stereo unspecified)
inactive: dose: 0.18 mg/kg/injection, schedule: Q01DX009 (ip), vehicle: saline 104 % of control | dose: 0.37 mg/kg/injection, schedule: Q01DX009 (ip), vehicle: saline 104 % of control | [1] 113 % of control | [2] 113 % of control

CCCCCN(C)/N=N/c1nc[nH]c1C(N)=O
inactive: dose: 32.0 mg/kg/injection, schedule: Q01DX005 (ip), vehicle: saline with Tween-80 120 % of control

CN(Cc1cnc2nc(N)nc(N)c2n1)c1ccc(C(=O)N[C@@H](CCC(=O)O)C(=O)O)cc1
inactive: dose: 0.38 mg/kg/injection, schedule: Q01DX009 (ip), vehicle: saline 108 % of control | dose: 0.5 mg/kg/injection, schedule: Q01DX009 (ip), vehicle: sodium bicarbonate 104 % of control | [1] 100 % of control and 104 % of control | dose: 1.0 mg/kg/injection, schedule: Q01DX009 (ip), vehicle: sodium bicarbonate 100 % of control | [2] 95 % of control and 100 % of control | dose: 2.0 mg/kg/injection, schedule: Q01DX009 (ip), vehicle: sodium bicarbonate 95 % of control | dose: 3.0 mg/kg/injection, schedule: Q01DX009 (ip), vehicle: saline 112 % of control | dose: 4.0 mg/kg/injection, schedule: Q01DX009 (ip), vehicle: sodium bicarbonate 100 % of control
